Experimental data reported in PubChem BioAssay AID179 (DTP/NCI, 2004).
The source made the active and inactive calls.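 The calls were made as follows: active = compounds giving half or more protection of infected cells from virus-caused growth loss, again on retest; inactive = the rest.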 Where a SMILES comes first, the peptide text is derived from it. [ ]: non-standard residue; d: D form. The star is where a group is joined. ξ: configuration not given here. X17 = O=C(OCc1ccccc1)[C@@H]1CCC[C@H]1N*; Fmoc = O=C(OCC1c2ccccc2-c2ccccc21)*; ξW = NC(Cc1c[nH]c2ccccc12)C(=O)O; ξF = NC(Cc1ccccc1)C(=O)O; Boc = CC(C)(C)OC(=O)*; ξK = NCCCCC(N)C(=O)O; ξT = CC(O)C(N)C(=O)O; tBu = CC(C)(C)*

Test system: CEM cells HIV-1 protection, formazan growth assay
Assay: NCI AIDS Antiviral Assay
Details: for IC50: measured here: growth of uninfected CEM cells
Outline: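 Category rules: moderately active means at least 50% protection on retest, and confirmed active means 100% protection reproducibly. The underlying data came from a formazan growth assay in HIV-1-infected CEM cells.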

| Structure (SMILES) | EC50 [µM] | IC50 [µM] | outcome |
| --- | --- | --- | --- |
| O=C1C=CC(=O)c2c(O)ccc(O)c21 | > 200 | 3.89 | – |
| Nc1ncccc1N1C(=O)c2ccccc2C1=O | > 200 | > 200 | – |
| CCOc1ccccc1NC(=O)C(=O)Cc1nc2ccccc2s1 | – | – | inactive |
| N.N.N.O=[N+]([O-])[O-].O=[N+]([O-])[O-].O=[N+]([O-])[O-].O=[N+]([O-])[O-].[Co+3] | > 692 | 117 | – |
| CC(C)(C)c1cc(C2COC(=O)COCC(=O)OCCOCCOCCO2)cc(C(C)(C)C)c1O (stereo not drawn) | > 200 | 95.5 | – |
| COc1ccc2nc3cccc([N+](=O)[O-])c3c(NCCNCCO)c2c1 | > 0.2 | 0.112 | – |
| CCC(=O)c1c(CC)ccc2ccccc12 | > 200 | 105 | – |
| COC(=O)c1cc(C(=C2CC2)c2cc(Br)c(OC)c(C(=O)OC)c2)cc(Br)c1OC | > 200 | 14.1 | – |
| CCCCCCCCCCCCS(=O)(=O)O.[Pb] | > 200 | > 200 | – |
| COC(=O)C1C2CC3C1C3C2C(=O)OC (stereo not drawn) | > 200 | > 200 | – |
| Clc1ccc(C=NC23CC4CC(CC(C4)C2)C3)c(Cl)c1 | – | – | inactive |
| O=P(Nc1ccc(Cl)cc1)(Oc1ccccc1)N(CCCl)CCCl (stereo not drawn) | > 17.8 | 8.71 | – |
| CN(C)CCNC1c2ccccc2CCc2ccccc21 | – | – | inactive |
| CC[As](CC)SCC1OC(OC(C)=O)C(OC(C)=O)C(OC(C)=O)C1OC(C)=O (stereo not drawn) | > 191 | 4.57 | – |
| CC(=O)Oc1ccc(OC(Oc2ccccc2)c2ccccc2)cc1 (stereo not drawn) | > 89.1 | 60.3 | – |
| COc1c(-c2ccccc2)nc2ccc(Oc3ccccc3)nn12 | > 56.2 | > 56.2 | – |
| COC(=O)C1CCC(=O)N1C(c1ccccc1)c1cc(OC)c(OC)c(OC)c1 (stereo not drawn) | > 200 | 34.7 | – |
| CS(=O)(=O)NNS(=O)(=O)c1ccc(Br)cc1 | > 398 | > 398 | – |
| O=C1c2ccccc2C(=O)N1CCn1nc(-c2ccccc2)cc(-c2ccccc2)c1=O | > 12.3 | > 12.3 | – |
| [NH-]/N=C(\[O-])c1ccncc1.[NH-]/N=C(\[O-])c1ccncc1.[Ni+2] | > 100 | > 100 | – |
| C[C@@H](c1ccccc1)N1CO[C@@]2(C#Cc3ccc4c(c3)OCO4)CCC[C@@H]12 | > 200 | 33.1 | – |
| CC(C)C1CNC(=O)C2(C=NC(C(C)C)CNC(=O)C3(C=N1)CCCO3)CCCO2 (stereo not drawn) | > 12.3 | > 12.3 | – |
| N#C/C(=C\c1ccc(-c2ccccc2)cc1)c1ccc([N+](=O)[O-])cc1 | > 200 | > 200 | – |
| Cc1cc[n+]2n1CC(O)C2 (stereo not drawn) | – | – | inactive |
| COc1ccc(-c2c3c(n(C4OC(COC(C)=O)C(OC(C)=O)C(OC(C)=O)C4OC(C)=O)c(=S)c2C#N)CCCC3)cc1 (stereo not drawn) | > 200 | 89.1 | – |
| CC(=O)NNc1nc(C)c(C(=O)/C=C/c2cccc([N+](=O)[O-])c2)s1 | 70.8 | 75.9 | – |

| Structure (SMILES) | EC50 [µM] | IC50 [µM] | outcome |
| --- | --- | --- | --- |
| O=C(O)c1ccc(C2COc3ccc(Cl)cc3C2)cc1 (stereo not drawn) | > 174 | 105 | – |
| CC1(C(=O)O)CCC2(C)CCC3(C)C(=CC(=O)C4C5(C)CCC(OC6OC(C(=O)O)C(O)C(O)C6OC6OC(C(=O)O)C(O)C(O)C6O)C(C)(C)C5CCC43C)C2C1 (stereo not drawn) | > 302 | > 302 | – |
| COc1ccc(N2C(=O)C3CC(c4ccc(Br)cc4)c4c([nH]c5ccccc45)C3C2=O)cc1 (stereo not drawn) | > 14.5 | 11 | – |
| O=c1[nH]cnc2c1ncn2C1CC(O)C(CO)(C(F)(F)F)O1 (stereo not drawn) | > 200 | 132 | – |
| COc1cc2cnc3c4cc(OS(=O)(=O)c5ccccc5)ccc4ccc3c2cc1OC | > 14.5 | > 14.5 | – |
| Cc1cc(C)c2c(c1)CC1(Cc3c(C)ccc(C)c3C1=O)C2=O (stereo not drawn) | > 100 | > 100 | – |
| O=C1OC(=O)c2c1ccc1ccc(Cl)cc21 | – | – | inactive |
| C/C(CC(=O)Nc1ccc(C)cc1C)=N/N=C(N)N | > 191 | > 191 | – |
| COc1ccc(/C=C2/C(=O)C(c3ccccc3)N(c3ccccc3)C2=O)cc1OC (stereo not drawn) | > 200 | 107 | – |
| O=C1c2ccccc2C(=O)N1CCc1c[nH]c2ccccc12 | > 200 | > 200 | – |
| C[C@H]1OCN(C(=O)c2cc3ccccc3cc2SSc2cc3ccccc3cc2C(=O)N2CO[C@H](C)[C@H]2C(=O)O)[C@@H]1C(=O)O | > 100 | > 100 | – |
| C/C(=N\NS(=O)(=O)c1ccc(C)cc1)C(CN1CCCCC1)C(c1ccccc1)c1c(O)c2ccccc2oc1=O (stereo not drawn) | > 58.9 | 49 | – |
| Cc1nnc(SCC2=C(C(=O)O)N3C(=O)C(NC(=O)Cn4cc(Cl)c(=O)c(Cl)c4)C3SC2)s1 (stereo not drawn) | > 200 | > 200 | – |
| NC(CCCCCC(N)C(=O)O)C(=O)O (stereo not drawn) | – | – | inactive |
| Cc1nn2c(=O)c([N+](=O)[O-])c(/C=C/c3ccccc3)nc2s1 | > 200 | 3.31 | – |
| O=c1c(SCc2ccc(Cl)c(Cl)c2)c(SCc2ccc(Cl)c(Cl)c2)cnn1-c1ccccc1 | > 6.76 | > 6.76 | – |
| Cc1cc(N=C2C=C(Nc3cc(C)on3)C(=O)c3ccccc32)no1 | > 11.2 | > 11.2 | – |
| O=C(O)Cn1cnc2c(=O)[nH]c(Nc3ccccc3)nc21 | > 200 | > 200 | – |
| CC(CN(C)C)OC(=O)c1cc2ccccc2n1-c1ccccc1 (stereo not drawn) | > 200 | 91.2 | – |
| Cn1c(SCc2ccc([N+](=O)[O-])cc2)nnc1C12CC3CC(CC(C3)C1)C2 | > 200 | 110 | – |
| COc1cc(/C=C2\Sc3scc(-c4cccc([N+](=O)[O-])c4)[n+]3C2=O)cc(OC)c1OC | > 200 | 9.77 | – |
| COC(=O)C(C#N)C1NC(=O)c2ccccc21 (stereo not drawn) | > 81.3 | > 81.3 | – |
| COc1ccc2cc(C(=O)Nc3ccc(O)c(C(=O)O)c3)ccc2c1OC | > 200 | > 200 | – |
| OC1(c2ccccc2)Oc2ccccc2C(c2ccccc2)C1c1ccccc1 (stereo not drawn) | > 200 | 9.55 | – |
| CCO[C@@H]1OC(=O)[C@H]2C(c3ccccc3Cl)=NO[C@@H]12 | > 178 | > 178 | – |
| CCc1c(Cc2ccccc2)n(COCC[Se]c2ccccc2)c(=O)[nH]c1=O | 4.27 | 28.8 | – |

| Structure (SMILES) | EC50 [µM] | IC50 [µM] | outcome |
| --- | --- | --- | --- |
| CCOC(=O)c1[nH]cc(C)c1-c1ccc2c(-c3ccccc3)nc3ccccc3n12 | > 200 | 3.16 | – |
| CC(C)c1cccc(C(C)C)c1NC(=O)/C(CC(=O)CC(c1ccccc1)c1c(O)c2ccccc2oc1=O)=N/O (stereo not drawn) | > 89.1 | > 89.1 | – |
| CSC(=NCCN=C(NS(=O)(=O)c1ccc(Cl)cc1)SC)NS(=O)(=O)c1ccc(Cl)cc1 | > 200 | > 200 | – |
| CC(=O)OC(C)(C)c1ccc2c(c1)C(=O)C[C@@H]1[C@](C)(C#N)CCC[C@]21C | > 200 | 126 | – |
| Cc1cc(-n2nnc(C(=O)O)c2-c2ccccc2)c2ccc(Cl)cc2n1 | > 200 | > 200 | – |
| NC(=O)NCCSC1(SCCNC(N)=O)CCCCC1 | > 200 | > 200 | – |
| COC(=O)c1ccccc1C1CN=NC12Cc1cc(C)c(C)cc1C2=O (stereo not drawn) | > 138 | > 138 | – |
| COc1ccc(C2SC(N)=Nc3c2c(C)nn3C(=O)c2ccncc2)cc1OC (stereo not drawn) | 49 | 170 | – |
| CCCCCCCCSCC1OC2OC3C(CSCCCCCCCC)OC(OC4C(CSCCCCCCCC)OC(OC5C(CSCCCCCCCC)OC(OC6C(CSCCCCCCCC)OC(OC7C(CSCCCCCCCC)OC(OC8C(CSCCCCCCCC)OC(OC1C(OS(=O)(=O)O)C2OS(=O)(=O)O)C(OS(=O)(=O)O)C8OS(=O)(=O)O)C(OS(=O)(=O)O)C7OS(=O)(=O)O)C(OS(=O)(=O)O)C6OS(=O)(=O)O)C(OS(=O)(=O)O)C5OS(=O)(=O)O)C(OS(=O)(=O)O)C4OS(=O)(=O)O)C(OS(=O)(=O)O)C3OS(=O)(=O)O (stereo not drawn) | 2.57 | 50.1 | – |
| C[C@@H]([C@H]1CC[C@@]2(C)[C@@H]3CC[C@@H]4C(=CC3=CC[C@]12C)CC[C@H](N(C)C)C4(C)C)N(C)C | > 200 | > 200 | – |
| CC(OC(C)(C)C)C(NC(=O)C(CCCCNC(=O)OC(C)(C)C)NC(=O)C(Cc1c[nH]c2ccccc12)NC(=O)C(Cc1ccccc1)NC(=O)OCC1c2ccccc2-c2ccccc21)C(=O)NC(Cc1ccccc1)C(=O)N[C@@H]1CCC[C@H]1C(=O)OCc1ccccc1 (stereo partly drawn) (Fmoc-[ξF][ξW][ξK](Boc)[ξT](tBu)[ξF]-X17) | – | – | inactive |
| C(/C=C/Nc1ccc(-c2ccccc2)cc1)=Nc1ccc(-c2ccccc2)cc1 | > 200 | > 200 | – |
| COc1ccccc1NC(=O)CC(=O)N1N=C(N(c2ccccc2)c2ccccc2)CC1c1ccccc1 (stereo not drawn) | – | > 100 | inactive |
| COc1cc2c3c(c1OC)C1(C=CC(=O)C=C1)CC3N(C(=O)OC(C)(C)C(Cl)(Cl)Cl)CC2 (stereo not drawn) | – | – | inactive |
| CC(=O)OCCNc1n[nH]c(=O)c2cnccc12 | > 1000 | > 1000 | – |
| O=c1c2ccccc2oc2c1ccc1ncccc12 | > 200 | 6.61 | – |
| CC(C)=CCC[C@@H](C)c1c(O)c(O)c(C)c2nc3ccccc3nc12 | > 200 | 5.89 | – |
| NC1=NC(=O)[C@H](CSCc2ccccc2)N1C(=O)OCc1ccccc1 | > 200 | > 200 | – |
| CC1(C)CCC[C@]2(C)[C@H]3[C@H](C#N)c4cc(O)c(O)cc4O[C@@]3(C)CC[C@@H]12 | > 200 | 1.41 | – |
| COC1C(O)CC(OC2CC(Oc3cc4cc5c(c(O)c4c(O)c3C)C(=O)[C@@H](OC3CC(OC4CC(OC6CC(C)(O)C(OC(C)=O)C(C)O6)C(O)C(C)O4)C(O)C(C)O3)[C@H]([C@H](OC)C(=O)[C@@H](O)[C@@H](C)O)C5)OC(C)C2OC(C)=O)OC1C (stereo partly drawn) | > 6.17 | 0.00195 | – |
| CCOCCOC(=O)C1CCC(=O)N1CN(C(C)=O)c1cc(OC)ccc1OC (stereo not drawn) | – | – | inactive |
| COc1cc2c(cc1OC)C1CC(OC(=O)c3ccccc3)(c3nccc4cc(OC)c(OC)cc34)CCN1CC2 (stereo not drawn) | – | – | inactive |
| CC(=O)NC(CCC(=O)c1ccc(Cl)cc1)(C(=O)O)C(=O)O | > 200 | > 200 | – |
| Cc1ccc(/C([O-])=C(\C(=S)Nc2cccc(Cl)c2)[n+]2ccccc2)cc1 | > 200 | 25.1 | – |
| COC1=NN2C(OC)(c3ccccc3)c3c(-c4ccccc4)sc(-c4ccccc4)c3C2(c2ccccc2)S1 (stereo not drawn) | – | – | inactive |
